Marks after values point to notes of the source that are not given here. Ends that are not written are not given here.
Experiments:
MDA-MB-468 [1] = experiment: Wound-healing (motility) assay, MDA-MB-468; assay type: cell-based, human; conditions: for Relative activity: unit assumed; for Migrating cells: 18-24 h
Description: (§1) MCF-7, MDA-MB-23 1, and MDA-MB-468 breast tumor cell lines or HECs were seeded onto sterile glass coverslips in Petri dishes or six-well plates. When the cells were 70-80% confluent, the monolayers were scratched with a sterile plastic pipet tip.
(§2) Inhibitor concentrations were 50 μM PD98059 (PD98) (mitogen activated protein kinase-kinase 1 [MEK1] inhibitor), 5 nM Wortmannin (phosphatidyl inositol 3 kinase [PI3K] inhibitor), or human recombinant soluble Flt-1 (sFlt-1) (R&D Systems). […] Cells were pre-incubated with PD98 and Wortmannin for 15-30 min before addition of PlGF. Stained (Wright-Giemsa) and mounted coverslips were examined microscopically. Five to ten 100× fields were evaluated by counting the number of cells separated from the wound edges and which appeared to be migrating toward the center of the wound. Results are reported as the average number of cells migrating into the wound/100× field. In some cases data from separate experiments were combined to accommodate inclusion of various treatments in the tables.
(§3) Antibody concentration was 1 μg/ml. MEK1 inhibitor, PD98059 (PD98), 50 μM. PI3K inhibitor, Wortmannin, 5 nM. […] Values for antibody and inhibitor treatments were from separate experiments which included all relevant controls. […] UT denotes untreated controls. *P<0.01 (ANOVA) compared to UT; † P<0.02 (ANOVA) compared to PlGF only. ‡ P<0.001 (ANOVA) compared to PlGF only.

MDA-MB-468 xenografts = assay type: in vivo, mice; conditions: 200 μg/dose i.p., twice-weekly
Description: FIG. 5. Treatment of mice bearing MDA-MB-468 xenografts with peptides BP1 or BP3. Mice were treated every 3-4 days with 200 ug BP as described in Methods. Tumor volume was measured 2×/week. *P<0.05 at days 10, 14, 17 and 24 (change in tumor volume (ANOVA)). FIG. 5A—tumors treated with binding peptide 1. FIG. 5B—tumors treated with binding peptide 3.
Mice bearing MDA-MB-468 xenografts (average tumor volume: 0.19 cm^3) were treated with i.p. injections of individual peptides (200 μg/dose) (FIG. 5). After 4 weeks of twice-weekly treatment, tumor growth was inhibited by 49% and 58% in mice treated with BP1 (FIG. 5A) or BP3 (FIG. 5B), respectively. The effect of BP3 on tumor growth was apparent after 2 weeks of treatment (FIG. 5B), whereas the inhibitory effect of BP1 was evident after one week (FIG. 5A). The average changes in individual tumor volumes during treatment with BP1 were significant (P<0.05) at days 10, 14, 17 and 24 (FIG. 5A). Treatment with BP2 was ineffective; tumors continued to grow at almost the same rate as the mock-treated controls (results not shown). BP4 treatment produced a 20% inhibition of tumor growth (results not shown).

[2] = molecular target: T1, recombinant human Flt-1 fusion protein (Homo sapiens, UniProt P17948); experiment: Free peptide binding and competition ELISA, Flt-1-coated wells
T1 construct: purchased R & D Systems
T1 sequence (P17948 with tags, fused parts or gaps limits assumed): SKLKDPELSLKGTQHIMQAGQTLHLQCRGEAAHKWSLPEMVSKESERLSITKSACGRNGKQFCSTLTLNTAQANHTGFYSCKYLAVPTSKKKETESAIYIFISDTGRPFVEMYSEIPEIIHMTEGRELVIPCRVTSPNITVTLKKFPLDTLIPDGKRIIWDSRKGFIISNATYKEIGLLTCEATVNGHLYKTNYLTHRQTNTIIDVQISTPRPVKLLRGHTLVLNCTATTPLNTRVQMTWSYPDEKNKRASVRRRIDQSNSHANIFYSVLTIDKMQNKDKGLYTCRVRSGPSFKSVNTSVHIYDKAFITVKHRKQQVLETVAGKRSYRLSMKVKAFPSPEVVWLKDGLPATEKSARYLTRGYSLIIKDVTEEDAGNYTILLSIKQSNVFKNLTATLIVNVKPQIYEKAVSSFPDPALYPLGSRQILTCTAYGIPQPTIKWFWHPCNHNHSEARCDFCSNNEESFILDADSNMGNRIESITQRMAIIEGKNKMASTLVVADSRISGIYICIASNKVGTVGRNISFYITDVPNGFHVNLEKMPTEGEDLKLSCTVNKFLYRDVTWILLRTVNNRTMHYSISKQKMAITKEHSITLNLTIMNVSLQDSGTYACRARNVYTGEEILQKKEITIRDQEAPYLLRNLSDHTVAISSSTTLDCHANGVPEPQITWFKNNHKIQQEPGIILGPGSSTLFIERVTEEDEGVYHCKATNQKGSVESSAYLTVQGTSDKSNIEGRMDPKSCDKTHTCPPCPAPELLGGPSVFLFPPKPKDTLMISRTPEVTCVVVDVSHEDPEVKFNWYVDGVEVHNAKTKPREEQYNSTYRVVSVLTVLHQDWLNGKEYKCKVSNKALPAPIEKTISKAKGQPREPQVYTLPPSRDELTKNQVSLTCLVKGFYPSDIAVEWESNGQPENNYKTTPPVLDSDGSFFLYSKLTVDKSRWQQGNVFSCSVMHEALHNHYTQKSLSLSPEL
Description: Competition assays were done with 2.5 or 25 U/ml heparin (Sigma, St. Louis, Mo.). BP1, 3, 4, and a scrambled version of BP3 (scrBP3) were synthesized with a linker followed by the FLAG epitope ([…] SEQ ID NO:5) at the C-terminus. Thirty minutes after addition of the first reagent, the second reagent was added, followed by another 30 minute incubation. Peptide binding was assessed by probing for the FLAG epitope (Prickett et al., Biotechniques 7:580-9, 1989; Castrucci et al., J. Virol. 66:4647-53, 1992). Absorbance was read at 490 nm.

[3] = tested on: MCF-7 human breast cancer cells; assay type: cell-based; conditions: human, 24 h, 2 μM
Description: MTT (3-(4,5-dimethylthiazolyl-2)-2,5-diphenyltetrazolium bromide, Sigma) assays were performed under conditions of low serum (1%) to determine PlGF effects on cell viability, the toxicity of the peptides, and their effect on PlGF-mediated breast tumor cell growth (Mosmann, 1983, J Immunol Meth 65:55-63; Modrak et al., 2000, Biochem Biophys Res Commun 268:603-606). Peptide concentration was 1-2 μM, and the concentration of exogenous PlGF was 2 nM. The human breast tumor lines tested were: MDA-MB-231, MDA-MB-468 and MCF-7 (ATCC, Mannasses, Va.). Briefly, 96-well plates were seeded with 5-10×10^4 cells/ml in medium containing 1% fetal bovine serum (FBS). After 24 h, cells were treated with individual peptides at a concentration of 1-2 μM (4 binding peptides), in quadruplicate, and/or rhuPlGF at a 2-nM concentration. After the designated time points, 0.5 mg/ml MTT (5 mg/ml stock diluted 1:10 in RPMI medium with no serum) was added to the wells (Mosmann, 1983). When purple crystals were clearly visible in the cells, and the plate appeared to be fully developed, the reaction was terminated with acid alcohol (0.04M HCl in isopropanol). Absorbance of the dissolved crystals was read at 570 nm. The 24-h time point was chosen because the in vitro effects of PlGF on tumor cell migration were measurable at this time (see wound-healing assay below). These assays were also performed using medium with 10% FBS, with similar results.

MCF-7 = experiment: Wound-healing (motility) assay, MCF-7; assay type: cell-based, human; conditions: for Relative activity: unit assumed; for Migrating cells: 18-24 h
Description: as §1, §2, §3

MDA-MB-468 [4] = experiment: Matrigel cell invasion assay, MDA-MB-468; assay type: cell-based, human; conditions: 48 h
Description: Cellular invasion was determined by addition of 5×10^4cells to growth factor-reduced Matrigel invasion chambers (BD Biosciences Discovery Labware, Bedford, Mass.) (Taylor et al., 2003b; Passaniti et al., 1992, Lab Invest 67, 519-528). Additives to the Matrigel® plugs were pre-incubated together in a total volume of 100 μl PBS at RT for 10 min, after which each additive was added to the Matrigel. Growth factors (2.0 or 0.2 nM), peptide (2 μg/ml), or antibody (1 μg/ml) were added to cells in low serum (0.1% fetal bovine serum [FBS]) medium. Baseline and chemoattractant-based invasion (10% FBS) were included. The number of invading cells was determined by counting the number of cells on the bottom of the invasion chamber membrane after staining at 100× magnification after 24 h (MDA-MB-231) or 48 h (MCF-7, MDA-MB-468). The results of three to five separate experiments are presented.

[5] = PlGF 2 nM ± test agent, relative to PlGF-only value
[6] = VEGF 2 nM ± test agent, relative to VEGF-only value
[7] = growth factor PlGF 2 nM ± test agent (Flt-1 2 nM, peptide 2 μM, antibody 1 μg/ml)
[8] = growth factor VEGF 2 nM ± test agent

Question: Which Relative activity (MDA-MB-468 [1]; [5]) does the source give for SHRYRLAIQLHASDSSSSCV [BP1] here?
Answer: Its Relative activity is 97%.

Question: And the Relative activity (MDA-MB-468 [1]; [6])?
Answer: The Relative activity was 113%.

Question: And the Migrating cells (MDA-MB-468 [1]; [7])?
Answer: The Migrating cells was 14.3 ± 8.1 cells/100× field.

Question: And the Migrating cells (MDA-MB-468 [1]; [8])?
Answer: The Migrating cells was 15.8 ± 9.5 cells/100× field.

Question: And the “duration of treatment after which effect on tumor growth was apparent” value (MDA-MB-468 xenografts)?
Answer: The value was “one week”.

Question: And the “binding to Flt-1, fold over background” value [2]?
Answer: Its value is 10 fold.

Question: And the inhibition at 1 µM ([2]; 1 μM BP1 followed by 2.5 U/ml heparin, read-out: inhibition of BP1 binding to Flt-1, BP1 added prior to heparin)?
Answer: The inhibition at 1 µM was 13%.

Question: And the “binding to immobilized Flt-1 (A490), BP1 only” value ([2]; 5 μM BP1 only)?
Answer: The value was 0.527±0.025.

Question: And the “binding to immobilized Flt-1 (A490), with added free Flt-1” value ([2]; 5 μM BP1 with added free Flt-1 (2 nM))?
Answer: The value was 0.327±0.127.

Question: What about the “decrease in BP1 binding to Flt-1, heparin added before BP1” value ([2]; 2.5 U/ml heparin followed by 1 μM BP1) of the same sequence?
Answer: Its value is 64%.

Question: And the “effect of PlGF on the binding of BP1 to Flt-1” value ([2]; PlGF between 1 and 100 nM)?
Answer: The value was “no significant effect”.

Question: What about the “decrease in binding of BP1 to immobilized Flt-1 by free Flt-1” value ([2]; free Flt-1 2 nM, 5 μM BP1) of the same sequence?
Answer: The value was 38%.

Question: And the “binding to Flt-1 (A490)” value ([2]; peptide with C-terminal FLAG epitope)?
Answer: Its value is 0.886±0.096.

Question: What about the “viability lowered, peptide alone” value [3] of the same sequence?
Answer: Its value is 21%.

Question: And the Relative activity (MCF-7; [5])?
Answer: The Relative activity was 45%.

Question: And the Relative activity (MCF-7; [6])?
Answer: Its Relative activity is 102%.

Question: What about the “effect on PlGF-stimulated motility (in words)” value (MCF-7; antibody 1 μg/ml, peptide 2 μM) of the same sequence?
Answer: The value was “inhibited”.

Question: What about the Migrating cells (MCF-7; [7]) of the same sequence?
Answer: The Migrating cells was 10.2 ± 7.8† cells/100× field.

Question: And the Migrating cells (MCF-7; [8])?
Answer: Its Migrating cells is 12.9 ± 2.9 cells/100× field.

Question: And the “Average fold-change in the number of cells on the membrane compared to untreated controls” value (MDA-MB-468 [4]; PlGF 0.2 nM ± peptide 2 μg/ml)?
Answer: The value was 0.6 ± 0.4 fold.

Question: What about the “Average fold-change in the number of cells on the membrane compared to untreated controls” value (MDA-MB-468 [4]; peptide 2 μg/ml alone) of the same sequence?
Answer: The value was 1.2 ± 0.3 fold.

Source: patent US7642239B2, “Inhibition of placenta growth factor (PLGF) mediated metastasis and/or angiogenesis” (Center for Molecular Medicine and Immunology, priority 2005, dated 2010)
